Read-outs that look alike come from different tables or passages of the source.
Tests used:
[1] = system: T1, MC4-R; experiment: Assay for inverse agonist, HEK-293 cells expressing MC4-R; format: cell-based; settings: FIG. 3
T1 construct: expressed in transfected cells; host or cells: HEK-293
Experimental: Assay for inverse agonist. […] The experimental protocol was essentially as described above. The cells were exposed to the test compounds over a concentration range of 0.05 nM to 5000 nM for 1 hour at 37° C. AgRP (83-132) was used as the reference inverse agonist. Data analysis and EC50 values were determined by using nonlinear regression analysis with the Prism Graph-Pad software.

[2] = system: T2, hMC3-R; experiment: cAMP functional assay, HEK-293 cells expressing hMC3-R; format: cell-based, human; settings: cAMP assay at 1 μM
T2 construct: expressed in transfected cells; host or cells: HEK-293
Experimental: (§1) General method for EC50 determination in functional activity assay. Functional evaluation of compounds at melanocortin receptors was performed by measuring the accumulation of intracellular cAMP in HEK-293 cells expressing hMC3-R, hMC4-R or hMC5-R, and in B-16 mouse melanoma cells expressing MC1-R. Cells suspended in Earle's Balanced Salt Solution containing 10 mM HEPES (pH 7.5), 5 mM MgCl2, 1 mM glutamine, 0.1% albumin and 0.6 mM 3-isobutyl-1-methyl-xanthine, a phosphodiesterase inhibitor, were plated in 96 well plates at a density of 0.5×10^5 cells per well. Cells were incubated with the test compounds in the presence or absence of α-MSH for 1 hour at 37° C. cAMP levels in the cell lysates were measured using an EIA kit (Amersham). Data analysis and EC50 values were determined using nonlinear regression analysis with Prism Graph-Pad software.
(§2) Functional status. The agonist/antagonist status with respect to MC1-R, MC-3R, MC4-R and MC5-R of certain compounds of the invention was determined.

[3] = target: T3, MC1-R; experiment: Competitive inhibition assay using [I125]-NDP-α-MSH, MC1-R membranes; format: binding, mouse
T3 construct: other: 1 μM compound

[4] = system: T4, hMC5-R; experiment: cAMP functional assay, HEK-293 cells expressing hMC5-R; format: cell-based, human; settings: cAMP assay at 1 μM
T4 construct: expressed in transfected cells; host or cells: HEK-293
Experimental: as §1, §2

[5] = target: T2, hMC3-R; experiment: Competitive inhibition assay using [I125]-NDP-α-MSH, hMC3-R membranes; format: binding, human; settings: for Ki: read-out: Ki (nM) (NDP-α-MSH) MC3-R; for Inhibition at 1 μM (NDP-α-MSH) MC3-R: 1 μM compound
Method in brief: (§3)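 Single-concentration displacement (usually 1 μM compound) of 0.2–0.4 nM [125I]-NDP-α-MSH, run 90 min at room temperature in pH 7.2 HEPES containing MgCl2, CaCl2 and KCl. Receptor sources: transfected HEK-293 membranes for human MC3-R/MC4-R/MC5-R, B-16 mouse melanoma membranes for MC1-R. Bound counts normalised to 1 μM α-MSH-defined specific binding; triplicates averaged, values below 0% set to 0%.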

[6] = system: T5, hMC4-R; format: binding, human; settings: for Inhibition at 1 μM (AgRP) MC4-R: 1 μM compound
T5 construct: expressed in transfected cells; host or cells: HEK-293
Method in brief: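 Membranes from hMC4-R-expressing cells incubated 1 h at 37 °C with 0.2 nM [I^125]-AgRP (83-132) and increasing compound in 25 mM HEPES pH 7.5, 100 mM NaCl, 2 mM CaCl2, 2 mM MgCl2, 0.3 mM 1,10-phenanthroline, 0.5% BSA. Filtration, gamma counting; specific binding kept ≤10% of added counts.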

[7] = system: T6, MC1-R; experiment: cAMP functional assay, B-16 mouse melanoma cells expressing MC1-R; format: cell-based; settings: cAMP assay at 1 μM
T6 construct: from B-16 mouse melanoma cells (containing MC1-R); endogenous in cells; host or cells: B-16 mouse melanoma cells
Experimental: as §1, §2

[8] = system: T5, hMC4-R; experiment: cAMP functional assay in HEK-293 cells expressing MC4-R (agonist, neutral antagonist/Schild); format: cell-based, human; settings: for functional status (pAg, Ag, Antag, Inactive): MC4-R, Table 1; for intrinsic activity at MC4-R: NDP-α-MSH maximal stimulation = 1.0; for functional status at MC4-R: mostly at 1 μM
Method in brief: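 Cells in EBSS/HEPES pH 7.5 with 0.3 mM IBMX, exposed to compound (0.05-5000 nM, 1% DMSO) for 1 h at 37 °C; cAMP by EIA, EC50 by nonlinear regression. Antagonism: 30 min compound pre-incubation, then 1 nM NDP-α-MSH for 1 h; Schild analysis over 0.005-5000 nM agonist gives pA2.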

[9] = target: T4, hMC5-R; experiment: Competitive inhibition assay using [I125]-NDP-α-MSH, hMC5-R membranes; format: binding, human; settings: for Ki: read-out: Ki (nM) (NDP-α-MSH) MC5-R; for Inhibition at 1 μM (NDP-α-MSH) MC5-R: 1 μM compound
Method in brief: as §3

[10] = target: T5, hMC4-R; experiment: Competitive inhibition assay using [I125]-NDP-α-MSH, hMC4-R membranes; format: binding, human; settings: for Inhibition at 1 μM (NDP-α-MSH) MC4-R: 1 μM compound
[11] = system: T1, MC4-R; format: cell-based; settings: HEK-293 cells expressing MC4-R
Text: Assay for Antagonists of AgRP in HEK-293/MC4-R Cells stimulated with Forskolin. […] AgRP causes a decrease in the basal adenylyl cyclase activity only to the extent of 40-50%. Even though the AgRP-induced decrease in cAMP levels is substantial, conventional assay methods, such as those described above, have limited sensitivity, precluding detecting small changes that are reversed by certain antagonists to AgRP. This limitation was circumvented by the use of a non-specific activator, forskolin, which directly activates adenylyl cyclase activity and raises cyclic AMP levels. Forskolin, a cell permeable diterpenoid initially isolated from Coleus forskohlii, has the ability to stimulate adenylyl cyclase activity and increase intracellular cAMP, thus activating cAMP-dependent protein kinase and other cAMP receptor proteins. See, e.g., Seamon, K. B., Daly, J. W. Forskolin: a unique diterpene activator of cyclic AMP-generating system. J. Cyclic Nucleotide Res. 7(4):201-24, 1981; Fradkin, J. E., Cook, G. H., Kilhoffer, M. C., Wolff, J. Forskolin stimulation of thyroid adenylate cyclase and cyclic 3′,5′-adenosine monophosphate accumulation. Endocrinology 111 (3):849-56, 1982; Barber, R., Goka, T. J. Adenylate cyclase activity as a function of forskolin concentration. J. Cyclic Nucleotide Protein Phosphor. Res. 10(1):23-9, 1985; and Laurenza, A., Sutkowski, E. M., Seamon, K. B. Forskolin: a specific stimulator of adenylyl cyclase or a diterpene with multiple sites of action? Trends Pharmacol. Sci. 10(11):442-7, 1989. […] The EC50 value was about 5 μM. AgRP inhibited the forskolin-induced response by 65% at a concentration of 10 nM. The difference in forskolin stimulated response and the inhibition due to AgRP in the cAMP levels was exploited to screen compounds for their ability to antagonize AgRP inhibition and […] levels of cAMP accumulation.
Experimental details for assays included incubating cells with the test compound in the presence of the inverse agonist AgRP with the extent of reversal of the AgRP effect measured by following the increase in the levels of intracellular cAMP. HEK-293 cells expressing MCR-4 were suspended in 10 mM HEPES/Earle's Balanced Salt Solution at pH 7.5 with the phosphodiesterase inhibitor IBMX, and pre-incubated for 30 minutes with the compounds (0.5-5000 nM). The cells were then treated with AgRP (10 nM) and incubated further for 30 minutes. The cells were then treated with forskolin (10 μM) and incubated for an additional 60 minutes. Cells were lysed and cAMP was measured by EIA kit (Amersham).

[12] = target: MC1-R; experiment: Competitive inhibition assay using [I125]-NDP-α-MSH, MC1-R membranes; format: binding, mouse; settings: for Inhibition at 1 μM (NDP-α-MSH) MC1-R: 1 μM compound
[13] = MC4-R membranes, Table 1, read-out: Ki (nM) I125-AgRP
[14] = MC4-R membranes, Table 1, read-out: Ki (nM) I125-NPD-α-MSH
[15] = read-out: Ki (nM) (NDP-α-MSH) MC4-R

Compound	Ki [5] [nM]	Inhibition at 1 μM (AgRP) MC4-R [6] [%]	Ki [6, 13] [nM]	Ki ([6]; read-out: Ki (nM) (AgRP) MC4-R)	functional status (pAg, Ag, Antag, Inactive) [8]	intrinsic activity at MC4-R [8]	functional status at MC4-R ([8]; cAMP assay)	Ki [9] [nM]	Ki [10, 14] [nM]	Ki [10, 15] [nM]	Ki [12] [nM]	Inhibition at 1 μM (NDP-α-MSH) MC1-R [12] [%]	Inhibition at 1 μM (NDP-α-MSH) MC3-R [5] [%]	Inhibition at 1 μM (NDP-α-MSH) MC5-R [9] [%]	Inhibition at 1 μM (NDP-α-MSH) MC4-R [10] [%]	further results
CC(=O)N[C@H](Cc1ccc2ccccc2c1)C(=O)N1C[C@@H](CC(C)C)N(CCc2ccc3ccccc3c2)C[C@@H]1CCCNC(=N)N [Example 13, N-{2-[2(S)-(3-Guanidino-propyl)-5(R)-isobutyl-4(2-naphthalen-2-yl-ethyl)-piperazin-1-yl]-1(R)-naphthalen-2-ylmethyl-2-oxo-ethyl}-acetamide]	474	100	3.7	3.7	Antag (“Antag” means antagonist)	no intrinsic activity	antagonist	378	6	6						inverse agonism (basal cAMP) [1]: inverse agonism; functional status at MC3-R [2]: no intrinsic activity (intrinsic activity below 0.1 (10%) is classified as inactive or having no intrinsic activity); Ki [3]: 4620 nM; Inhibition at 1 μM (NDP-α-MSH) MC1-R ([3]; 1 μM compound): 0%; functional status at MC5-R [4]: partial agonist (intrinsic activity between 0.1 (10%) and 0.7 (70%) is classified as a partial agonist); functional status at MC1-R [7]: no intrinsic activity (intrinsic activity below 0.1 (10%) is classified as inactive or having no intrinsic activity); pA2 value at MC4-R ([8]; Schild plot vs NDP-α-MSH): 7.3
Forskolin [reference compound]																total response relative to NDP-α-MSH [11]: three-fold higher; EC50 ([11]; read-out: EC50 value (cAMP stimulation)): ~5000 nM
N=C(N)NCCC[C@H]1CN(C(=O)Cc2ccc3ccccc3c2)[C@H](Cc2ccccc2)CN1C[C@H](N)Cc1ccc2ccccc2c1 [Example 30, N-{3-[1-[2(R)-Amino-3-naphthalen-2-yl-propyl]-5(R)-benzyl-4-(2-naphthalen-2-yl-acetyl)-piperazin-2(S)-yl]-propyl}-guanidine]	387		90	90	Inactive		inactive	178	55	61	2770	32	49	87	92	
NCCCC[C@H]1C(=O)N(CCc2ccc3ccccc3c2)CCN1C(=O)[C@@H](Cc1ccc(Cl)cc1Cl)NC(=O)/C=C/c1ccccc1 [Example 21, (E)-N—[(R)-2-[(S)-2-(4-Amino-butyl)-4-(2-naphthalen-2-yl-ethyl)-3-oxo-piperazin-1-yl]-1-(2,4-dichloro-benzyl)-2-oxo-ethyl]-3-phenyl-acrylamide]	648	100	5	5	pAg (“pAg” means partial agonist)	0.2		398	6	6	502	30	46	60	96	EC50 ([8]; cAMP assay, read-out: EC50 (nM) at MC4-R): 112 nM; attenuation of binding of α-MSH and AgRP to MC4-R ([10]; both ligands (NDP-α-MSH and AgRP), summary): attenuate the binding of both α-MSH and AgRP to MC4-R

Reference: patent US20090076029A1 (Palatin Technologies, Inc., priority 2007, published 2009)
